For assay [1], the target named is T1, TCF4-CTNNB1 complex (Homo sapiens, UniProt P15884+P35222).
T1 sequence (P35222 whole entry): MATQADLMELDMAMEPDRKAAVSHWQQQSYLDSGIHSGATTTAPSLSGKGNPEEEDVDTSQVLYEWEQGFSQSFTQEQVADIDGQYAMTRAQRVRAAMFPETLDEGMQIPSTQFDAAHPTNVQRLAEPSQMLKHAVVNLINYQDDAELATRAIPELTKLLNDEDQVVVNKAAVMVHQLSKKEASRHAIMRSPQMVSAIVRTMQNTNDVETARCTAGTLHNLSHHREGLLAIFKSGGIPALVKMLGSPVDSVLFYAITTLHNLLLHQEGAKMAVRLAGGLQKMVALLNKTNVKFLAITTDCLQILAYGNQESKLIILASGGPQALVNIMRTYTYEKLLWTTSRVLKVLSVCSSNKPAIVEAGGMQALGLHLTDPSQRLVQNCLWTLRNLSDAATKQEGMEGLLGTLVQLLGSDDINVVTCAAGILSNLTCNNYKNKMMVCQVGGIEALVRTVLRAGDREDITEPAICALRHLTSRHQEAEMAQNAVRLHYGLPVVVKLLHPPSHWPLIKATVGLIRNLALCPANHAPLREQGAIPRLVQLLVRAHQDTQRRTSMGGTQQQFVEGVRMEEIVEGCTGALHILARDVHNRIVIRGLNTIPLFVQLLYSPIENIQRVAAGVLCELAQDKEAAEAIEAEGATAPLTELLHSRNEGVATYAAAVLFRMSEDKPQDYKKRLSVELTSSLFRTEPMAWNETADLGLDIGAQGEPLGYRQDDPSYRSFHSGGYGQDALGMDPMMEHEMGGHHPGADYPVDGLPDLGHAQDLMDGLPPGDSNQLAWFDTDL
T1 sequence (P15884 whole entry): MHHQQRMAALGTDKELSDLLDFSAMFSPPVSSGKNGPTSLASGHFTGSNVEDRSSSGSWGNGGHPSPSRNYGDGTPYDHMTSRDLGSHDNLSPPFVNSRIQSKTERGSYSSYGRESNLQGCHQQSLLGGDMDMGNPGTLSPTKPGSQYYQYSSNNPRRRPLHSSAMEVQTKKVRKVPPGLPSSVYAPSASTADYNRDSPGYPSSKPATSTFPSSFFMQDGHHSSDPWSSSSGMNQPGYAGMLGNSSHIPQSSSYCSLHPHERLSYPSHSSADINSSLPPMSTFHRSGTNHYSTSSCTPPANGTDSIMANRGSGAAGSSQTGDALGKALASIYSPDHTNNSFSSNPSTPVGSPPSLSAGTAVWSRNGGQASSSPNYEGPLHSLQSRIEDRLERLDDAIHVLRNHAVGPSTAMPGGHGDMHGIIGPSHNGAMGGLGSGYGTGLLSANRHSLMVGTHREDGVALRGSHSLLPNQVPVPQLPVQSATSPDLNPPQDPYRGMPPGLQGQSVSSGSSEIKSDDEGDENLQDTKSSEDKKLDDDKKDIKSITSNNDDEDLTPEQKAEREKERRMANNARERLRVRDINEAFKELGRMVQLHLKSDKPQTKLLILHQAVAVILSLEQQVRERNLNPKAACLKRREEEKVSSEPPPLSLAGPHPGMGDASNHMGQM
The assay can be described thus: Inhibition of beta-Catenin (301 to 670 residues)/TCF4 protein-protein interaction in human HCT-116 cells incubated for 20 hrs by TOPFLASH luciferase reporter assay. It is filed as cell-based.

A short description of assay [2]: Inhibition of human beta-Catenin (138 to 686 residues)/C-terminal fluorescein-labeled human APC (1477 to 1519 residues) protein-protein interaction assessed as inhibition constant incubated for 30 mins by fluorescence polarization assay.
The test system of another assay is SW480. Briefly: Antiproliferative activity against human SW480 cells assessed as inhibition of cell growth by MTS assay. It is filed as functional, cell-based. Background: Tetrazolium assays rely on reduction of a dye to a coloured formazan, in cell work by metabolically active cells.
The nature of assay [3]: Inhibition of Wnt1 signalling in human SW480 cells expressing ST-Luc incubated for 24 hrs by luciferase reporter assay. It is filed as cell-based. The following applies: SW480, 24 h. A general note: Reporter assays use an easily measured gene product as a stand-in for the process of interest.
Assay [4] addresses T2, Catenin beta-1/Cadherin-1 (Homo sapiens, UniProt P35222).
T2 sequence (P35222 whole entry): T1 sequence (P35222 whole entry)
T2 sequence (P12830 whole entry): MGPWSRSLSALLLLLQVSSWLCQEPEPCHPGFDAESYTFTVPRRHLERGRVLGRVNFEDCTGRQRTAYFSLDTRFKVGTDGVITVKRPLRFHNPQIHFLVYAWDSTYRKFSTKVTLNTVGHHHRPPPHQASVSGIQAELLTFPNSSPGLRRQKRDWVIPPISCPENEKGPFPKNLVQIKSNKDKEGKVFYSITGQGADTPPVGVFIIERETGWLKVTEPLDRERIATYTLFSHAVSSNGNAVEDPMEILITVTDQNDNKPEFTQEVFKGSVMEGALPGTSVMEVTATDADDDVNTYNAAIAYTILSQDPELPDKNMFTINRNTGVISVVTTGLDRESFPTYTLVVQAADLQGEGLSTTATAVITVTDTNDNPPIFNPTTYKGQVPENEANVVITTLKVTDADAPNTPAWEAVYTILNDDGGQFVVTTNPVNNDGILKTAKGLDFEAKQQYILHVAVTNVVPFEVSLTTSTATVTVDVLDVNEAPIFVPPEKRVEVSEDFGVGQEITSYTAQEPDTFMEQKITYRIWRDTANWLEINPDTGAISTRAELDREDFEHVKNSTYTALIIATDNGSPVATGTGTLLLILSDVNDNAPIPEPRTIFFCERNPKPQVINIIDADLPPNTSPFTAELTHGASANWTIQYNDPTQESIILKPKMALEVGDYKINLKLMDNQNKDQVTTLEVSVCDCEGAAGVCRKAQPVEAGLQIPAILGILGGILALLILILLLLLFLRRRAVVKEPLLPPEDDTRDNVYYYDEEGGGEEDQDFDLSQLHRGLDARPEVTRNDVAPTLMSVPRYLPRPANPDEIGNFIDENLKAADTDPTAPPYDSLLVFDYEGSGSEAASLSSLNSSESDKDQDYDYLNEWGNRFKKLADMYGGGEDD
Briefly: Inhibition of His6-tagged human beta-Catenin (138 to 686 residues)/C-terminal fluorescein-labeled human E-cadherin (819 to 873 residues) protein-protein interaction assessed as inhibition constant by AlphaScreen competitive assay. A general note: In Alpha technology, singlet oxygen from a donor bead excites a nearby acceptor bead.

In assay [5] the target is T1, TCF4-CTNNB1 complex. Briefly: Inhibition of wild type beta-Catenin/TCF4 protein-protein interaction in human Hep3B cells incubated for 24 hrs by TOPFLASH reporter assay. It is filed as cell-based.
Assay [6] in a line: Inhibition of beta-Catenin S33Y mutant/TCF4 protein-protein interaction in human SNU-398 cells incubated for 24 hrs by TOPFLASH reporter assay. It is filed as cell-based.
Assay [7] deals with T3, TCF4-CTNNB1 complex (Homo sapiens, UniProt P35222+Q9NQB0).
T3 sequence (P35222 whole entry): T1 sequence (P35222 whole entry)
T3 sequence (P15884 whole entry): T1 sequence (P15884 whole entry)
Briefly: Inhibition of beta-Catenin/TCF4 (unknown origin) protein-protein interaction. It is filed as protein-complex assay.

Assay [8] has as its system HCT-116. The assay can be described thus: Antitumor activity against human HCT-116 cells xenografted with mouse assessed as reduction in tumor size at 20 mg/kg,ip administrated 3 times per week for 11 days. Further details: scale not given: the % may be the effect or the level left. It is filed as functional. The following applies: time 11 day.
The test system of assay [9] is HCT-116. The assay can be described thus: Antitumor activity against human HCT-116 cells xenografted with mouse assessed as reduction in tumor size at 100 mg/kg,ip administrated 3 times per week for 11 days. It is filed as functional. More on the design: scale not given: the % may be the effect or the level left. The following applies: time 11 day.

Consider `COC(=O)c1cccc(NS(=O)(=O)c2ccc(C)cc2)c1`, for which inhibition on TCF4-CTNNB1 complex [1] was half-maximal at 0.583 µM (IC50).

In the case of `COC(=O)[C@H](CCC(=O)O)NC(=O)[C@H](CC(=O)O)NC(=O)[C@H](Cc1ccc2ccccc2c1)NC(=O)Cc1cc2cc(Cl)ccc2[nH]1`, the inhibition constant (Ki) – broadly, a dissociation constant, usually derived from enzyme kinetics or from competition with a known ligand – in assay [2] was 86.6 µM. Besides, the IC50 – broadly, the point on the concentration scale where inhibition reaches its midpoint – in the assay with SW480 is 232 µM.

The compound `C=C1C(=O)[C@@]23[C@H](O)C[C@@H]4C(C)(C)CC[C@H](O)[C@@]4(COC(C)=O)[C@@H]2CC[C@H]1[C@H]3O` came in with a concentration for half-maximal inhibition (IC50) in assay [3] of 0.6 µM.

In the case of `O=C(Nc1ccc(O[C@H]2CCNC2)c(-c2ccc(F)cc2)c1)c1ccc(O[C@H]2CCNC2)c(-c2ccc(F)c(F)c2)c1`, the inhibitory constant (Ki) in assay [4] is 260 µM.

With `O=C(Nc1cnn(Cc2ccc(F)cc2)c1)C1CC1c1ccccc1` (stereo not given), the results for the IC50 (against TCF4-CTNNB1 complex [5]; in assay [6]) were 25 µM and 32 µM, respectively.

Consider `C[C@H]1[C@H]2N(C(=O)CN(C)N2C(=O)NCc2ccccc2)[C@@H](Cc2ccc(OP(=O)(O)O)cc2)C(=O)N1Cc1cccc2cccnc12`, for which it took 0.15 µM to reach half-maximal inhibition against TCF4-CTNNB1 complex [7] (IC50).

Consider `O=c1ccc2cc(O)c(O)cc2o1` [ESCULETIN], for which the Activity with HCT-116 [8] is 44%; with HCT-116 [9], 64%.
